Measured values published in patent US12714723B2, “Compositions and methods for cancer therapy” (AIM ImmunoTech Inc., priority 2018, dated 2026).
Where two headings read alike, the source gives them in different places. Marks after values point to notes of the source that are not given here.

What was measured:
[1] = system: pancreatic carcinoma; assay: Second-line therapy following progression on FOLFIRINOX; format: in vivo, human; conditions: Overall (mean)
Text: Overall Survival (OS) increased from 6.8 months with Gemcitabine to 11.1 months with FOLFIRINOX (p<0.001). However, the Complete Response Rate (CR) was only 0.6%.

[2] = system: locally advanced and metastatic pancreatic carcinoma; conditions: first-line therapy, n = 171 per arm; cited from earlier work
[3] = system: pancreatic carcinoma; conditions: second-line, cited from earlier work
[4] = system: TME of metastatic colorectal carcinoma; conditions: 9 patients vs. historical controls
Text: Colorectal carcinoma was used as a GI model for pancreatic carcinoma in order to obtain biopsy specimens of the TME. We used […]® to determine if there is improvement in the Teff/Treg ratio in the TME secondary to the […]® induction of desirable chemokines, such as CXCL 10 (Teff-attractant), in the TME, while decreasing the unfavorable chemokines, such as CCL22 (C-C Motif Chemokine Ligand 22; Treg-attractant), thereby increasing the Teff/Treg ratio in the TME.
See, Example Section below.

[5] = system: human bladder tumor xenografts; assay: Human bladder tumor xenografts in nude mice; format: in vivo
[6] = system: renal cell carcinoma (786-0) xenografts; assay: Renal cell carcinoma (786-0) xenografts in nude mice; format: in vivo; conditions: for tumor growth: FIG. 7, vs untreated controls
[7] = system: renal cell carcinoma (786-0) xenografts; conditions: Hubbell, 1990, cited from earlier work
[8] = system: B16 melanoma tumors; conditions: n = 10; for Number of Partial Responses (PR) / Number of Complete Responses (CR): Day 30; for Number of Complete Responses (CR): RECIST v1.1
Procedure: Rintatolimod together with anti-PD-L1 antibodies were tested for anti-tumor activity against established subcutaneous B16 melanoma tumors in C57BL/6 mice. Mice (10 animals per group) were inoculated with 0.4×10E6 B16-F10 tumor cells in their shaved rear flanks. Seven days later (when tumors reached 0.3 to 0.5 cm in their largest diameter), mice were randomized for tumor sizes, and individually tagged and were allocated to the following six treatment groups: • No treatment (negative controls) • Rintatolimod alone 100 μg/dose 4× • Rintatolimod alone 250 μg/dose 4× • Anti-PD-L1 mAb alone • Rintatolimod 100 μg/dose 4× plus anti-PD-L1 mAb • Rintatolimod 250 μg/dose 4× plus anti-PD-L1 mAb
Rintatolimod was injected intravenously at 100 or 250 micrograms/dose and was repeated 4 times, 5 days apart. Anti-PD-L1 mAb (clone 10F.9G2, BioXCell) was administered intraperitoneally on Days 1 and 3 after each rintatolimod injection at a 200 microgram/dose. Tumors were measured 3 times per week using a set of calipers, taking measurement of 2 opposing diameters and were recorded as tumor areas.
Results were presented as tumor sizes for individual mice throughout the time of therapy, average tumor size in each group and survival up to Day 30 (time to euthanasia).
® and anti-PD-L1 antibodies were tested for anti-tumor activity against established subcutaneous B16 melanoma tumors in C57BL/6 mice. Briefly, mice (10 animals per group) were inoculated with 0.4×10E6 (i.e., 400,000) B16-F10 tumor cells in their shaved rear flanks. Seven days later, mice were randomized to six treatment groups as follows: (Group 1) No treatment (negative controls); (Group 2) […] ® alone 100 μg/dose 4×; (Group 3) […] ® alone 250 μg/dose 4×; (Group 4) Anti-PD-L1 mAb alone; (Group 5) […] ® 100 μg/dose 4× plus anti-PD-L1 mAb; (Group 6) […] ® 250 μg/dose 4× plus anti-PD-L1 mAb. mAb refers to monoclonal antibody.
® was injected IV at 100 or 250 μg/dose 4 times, 5 days apart. Anti-PD-L1 mAb was administered IP on Days 1 and 3 after each […] ® dose at 200 μg/dose. Tumors were measured 3 times per week using calipers, measuring 2 opposing diameters. […] Results were presented as tumor sizes for individual mice throughout time of therapy up to Day 30.

[9] = system: pancreatic tumors; conditions: n = 8 each
Procedure: Please note that all four cohorts (control, […] ®, anti-PD-L1, […] ®+anti-PD-L1) were studied in the same parallel experiment.
In this experiment, sub-therapeutic doses of […] ® were administered in mouse models of pancreatic cancer.

Nc1ccn([C@@H]2O[C@H](CO)[C@@H](O)C2(F)F)c(=O)n1 [Gemcitabine]
Partial Response Rates (PR) [1]: 6.4% | Complete Response Rates (CR) ([1]; weighted average): 0%* | Progression Free Survival (PFS) ([1]; weighted average): 2.24* months | Overall Survival (OS) ([1]; weighted average based on n in each study): 4.05* months | Complete Response Rates (CR), % [2]: 0(0) % | Overall Survival (OS) [2]: 6.8 months | Partial Response Rates (PR), % [2]: 9.4% | Progression Free Survival (PFS) [2]: 3.3 months | Progression Free Survival (PFS) ([3]; Gilabert, et al. 2017, n = 72): 2.5 months | Complete Response Rates (CR) ([3]; Gilabert, et al. 2017): 0% | Partial Response Rates (PR) ([3]; Gilabert, et al. 2017): 5.5% | Overall Survival (OS) ([3]; Viaud, et al. 2017, n = 96): 3.7 months | Progression Free Survival (PFS) ([3]; Viaud, et al. 2017, n = 96): 2.1 months | Complete Response Rates (CR) ([3]; Viaud, et al. 2017): 0% | Partial Response Rates (PR) ([3]; Viaud, et al. 2017): 8.3% | Overall Survival (OS) ([3]; da Rocha, et al. 2015, n = 20): 5.7 months | Progression Free Survival (PFS) ([3]; da Rocha, et al. 2015, n = 20): 2.0 months | Complete Response Rates (CR) ([3]; da Rocha, et al. 2015): 0% | Partial Response Rates (PR) ([3]; da Rocha, et al. 2015): 0%

polyriboinosinic:polyribocytidylic(12:1)uridylic acid
ratio of Teff/Treg markers in the TME [4]: improved ratios | growth of human bladder tumor xenografts [5]: significantly inhibited | survival of nude mice ([6]; FIG. 8, 100% death rate for untreated controls): 100% | tumor growth ([6]; monotherapy, listed as rintatolimod): tumor regression was observed in each mouse | tumor growth ([6]; monotherapy, listed as tdsRNA): growth inhibition | mice free of the residual tumor ([6]; monotherapy, 100% of the control group had died): 90% | tumor growth inhibition ([7]; p<0.001): statistically significant tumor growth inhibition | survival ([7]; p<0.002): increased survival | Total # Tumor Responses CR + PR ([8]; rintatolimod 100 μg/dose 4×): 0 | Number of Partial Responses (PR) ([8]; rintatolimod 100 μg/dose 4×): 0 | Number of Complete Responses (CR) ([8]; rintatolimod 100 μg/dose 4×): 0 | Total # Tumor Responses CR + PR ([8]; rintatolimod 250 μg/dose 4×): 0 | Number of Partial Responses (PR) ([8]; rintatolimod 250 μg/dose 4×): 0 | Number of Complete Responses (CR) ([8]; rintatolimod 250 μg/dose 4×): 0 | Time to Progression Median ([9]; sub-therapeutic doses, control 33): 33 days | Increased Time to Progression ([9]; versus control): 0 days
